In patent US10806871B2, “Inhalable dry powders” (priority 2012, dated 2020):

Experiment: not given
Details: at 20 C; cited from earlier work

SMILES	solubility
OC[C@H]1O[C@H](O[C@H]2O[C@H](CO)[C@@H](O)[C@H](O)[C@H]2O)[C@H](O)[C@@H](O)[C@@H]1O [trehalose]	68.9 g per 100 g of water

Same assay, conditions: cited from earlier work

SMILES	solubility in water
OC[C@@H](O)[C@@H](O)[C@H](O)[C@H](O)CO [mannitol]	about 182 g/L

Experiment: not given
Details: listing; cited from earlier work

SMILES	Bioavailability
COc1ccc(CCN2CCC(Nc3nc4ccccc4n3Cc3ccc(F)cc3)CC2)cc1 [Astemizol]	Low-moderate
CC(=O)OC[C@H]1O[C@@H]([S-])[C@H](OC(C)=O)[C@@H](OC(C)=O)[C@@H]1OC(C)=O.CCP(CC)CC.[Au+] [Auranofin]	Low
OC(CCN1CCCCC1)(c1ccccc1)C1CC2C=CC1C2 (centres unmarked) [Biperiden]	Low
CCCC1O[C@@H]2C[C@H]3[C@@H]4CCC5=CC(=O)C=C[C@]5(C)[C@H]4[C@@H](O)C[C@]3(C)[C@]2(C(=O)CO)O1 (some centres unmarked) [Budesonide]	Low
COc1cc(N)c(Cl)cc1C(=O)NC1CCN(CCCOc2ccc(F)cc2)CC1OC (centres unmarked) [Cisapride]	Low
CN1CCC[C@@H]1CCO[C@](C)(c1ccccc1)c1ccc(Cl)cc1 [Clemastine]	Low
CC1CC(OC(=O)C(O)c2ccccc2)CC(C)(C)C1 (centres unmarked) [Cyclandelate]	Low
C#C[C@]1(O)CC[C@H]2[C@@H]3CCC4=Cc5oncc5C[C@]4(C)[C@H]3CC[C@@]21C [Danazol]	Low
CCCCCc1cc(O)c2c(c1)OC(C)(C)[C@@H]1CCC(C)=C[C@@H]21 [Dronabinol]	Low
NC(N)=Nc1nc(CSCCC(N)=NS(N)(=O)=O)cs1 [Famotidine]	Low
CCOC(=O)C1=C(C)NC(C)=C(C(=O)OC)C1c1cccc(Cl)c1Cl (centres unmarked) [Felodipine]	Low
OCCN1CCN(CCCN2c3ccccc3Sc3ccc(C(F)(F)F)cc32)CC1 [Fluphenazine]	Low
O=[N+]([O-])O[C@H]1CO[C@H]2[C@@H]1OC[C@H]2O[N+](=O)[O-] [Isosorbide dinitrate]	Low
COC(=O)C1=C(C)NC(C)=C(C(=O)OC(C)C)C1c1cccc2nonc12 (centres unmarked) [Isradipine]	Low
Nc1ccc(O)c(C(=O)O)c1 [Mesalamine]	Low
COc1ccc2cc(CCC(C)=O)ccc2c1 [Nabumetone]	Low
CCn1cc(C(=O)O)c(=O)c2cc(F)c(N3CCNCC3)cc21 [Norfloxacin]	Low
OCCN1CCN(CCCN2c3ccccc3Sc3ccc(Cl)cc32)CC1 [Perphenazine]	Low
CN[C@H]1CC[C@@H](c2ccc(Cl)c(Cl)c2)c2ccccc21 [Sertraline]	Low
CC(=O)S[C@@H]1CC2=CC(=O)CC[C@]2(C)[C@H]2CC[C@@]3(C)[C@@H](CC[C@@]34CCC(=O)O4)[C@H]12 [Spironolactone]	Low
C[C@]12CC[C@H]3[C@@H](CCC4=CC(=O)CC[C@@]43C)[C@@H]1CC[C@@H]2O [Testosterone]	Low

Experiment: Solubility of therapeutic agents in water or ethanol
Details: not given

SMILES	solubility in ethanol	solubility in water
OCc1cc(C(O)CNCCCCCCOCCCCc2ccccc2)ccc1O (centres unmarked) [salmeterol xinafoate]	slightly soluble in ethanol	practically insoluble in water

Experiment: not given
Details: listing, cf. PCT Publication WO/2004/062643; cited from earlier work

SMILES	Solubility In Water
Cc1nnc2n1-c1ccc(Cl)cc1C(c1ccccc1)=NC2 [Alprazolam]	Insoluble
CCOC(=O)C1=C(COCCN)NC(C)=C(C(=O)OC)C1c1ccccc1Cl (centres unmarked) [Amlodipine]	Slightly
COc1ccc(CCN2CCC(Nc3nc4ccccc4n3Cc3ccc(F)cc3)CC2)cc1 [Astemizol]	Insoluble
CC(=O)OC[C@H]1O[C@@H]([S-])[C@H](OC(C)=O)[C@@H](OC(C)=O)[C@@H]1OC(C)=O.CCP(CC)CC.[Au+] [Auranofin]	Slightly soluble
Cn1cnc([N+](=O)[O-])c1Sc1ncnc2nc[nH]c12 [Azathioprine]	Insoluble
CN1CCCC(n2nc(Cc3ccc(Cl)cc3)c3ccccc3c2=O)CC1 (centres unmarked) [Azelastine]	Insoluble
OC(CCN1CCCCC1)(c1ccccc1)C1CC2C=CC1C2 (centres unmarked) [Biperiden]	Sparingly soluble
C=CCC1(CC(C)C)C(=O)NC(=O)NC1=O [Butalbital]	Insoluble
NC(=O)N1c2ccccc2C=Cc2ccccc21 [Carbamazepine]	Insoluble
C[C@@](Cc1ccc(O)c(O)c1)(NN)C(=O)O [Carbidopa]	Slightly
CO/N=C(\C(=O)N[C@@H]1C(=O)N2C(C(=O)O)=C(COC(C)=O)CS[C@H]12)c1csc(N)n1 [Cefotaxime]	Sparingly
COc1cc(N)c(Cl)cc1C(=O)NC1CCN(CCCOc2ccc(F)cc2)CC1OC (centres unmarked) [Cisapride]	Insoluble
CC[C@H]1OC(=O)[C@H](C)[C@@H](O[C@H]2C[C@@](C)(OC)[C@@H](O)[C@H](C)O2)[C@H](C)[C@@H](O[C@@H]2O[C@H](C)C[C@H](N(C)C)[C@H]2O)[C@](C)(OC)C[C@@H](C)C(=O)[C@H](C)[C@@H](O)[C@]1(C)O [Clarithromycin]	Insoluble
CN1CCC[C@@H]1CCO[C@](C)(c1ccccc1)c1ccc(Cl)cc1 [Clemastine]	Slightly soluble
CN1CCN(C2=Nc3cc(Cl)ccc3Nc3ccccc32)CC1 [Clozapine]	Slightly
CC1CC(OC(=O)C(O)c2ccccc2)CC(C)(C)C1 (centres unmarked) [Cyclandelate]	Insoluble
O=C(O)Cc1ccccc1Nc1c(Cl)cccc1Cl [Diclofenac sodium]	Sparingly
OCCN(CCO)c1nc(N2CCCCC2)c2nc(N(CCO)CCO)nc(N3CCCCC3)c2n1 [Dipyridamole]	Slightly
CCCC(CCC)C(=O)O [Divalproex]	Slightly
CC(CCc1ccc(O)cc1)NCCc1ccc(O)c(O)c1 (centres unmarked) [Dobutamine]	Sparingly
COc1cc2nc(N3CCN(C(=O)C4COc5ccccc5O4)CC3)nc(N)c2cc1OC (centres unmarked) [Doxazosin]	Slightly
CCCCCc1cc(O)c2c(c1)OC(C)(C)[C@@H]1CCC(C)=C[C@@H]21 [Dronabinol]	Insoluble
CCOC(=O)[C@H](CCc1ccccc1)N[C@@H](C)C(=O)N1CCC[C@H]1C(=O)O [Enalapril]	Sparingly
CCc1cccc2c3c([nH]c12)C(CC)(CC(=O)O)OCC3 (centres unmarked) [Etodolac]	Insoluble
COc1cc([C@@H]2c3cc4c(cc3[C@@H](O[C@@H]3O[C@@H]5CO[C@@H](C)O[C@H]5[C@H](O)[C@H]3O)[C@H]3COC(=O)[C@H]23)OCO4)cc(OC)c1O [Etoposide]	Very Slightly
CCOC(=O)C1=C(C)NC(C)=C(C(=O)OC)C1c1cccc(Cl)c1Cl (centres unmarked) [Felodipine]	Insoluble
CC(C)(C)NC(=O)[C@H]1CC[C@H]2[C@@H]3CC[C@H]4NC(=O)C=C[C@]4(C)[C@H]3CC[C@]12C [Finasteride]	Insoluble
OC(Cn1cncn1)(Cn1cncn1)c1ccc(F)cc1F [Fluconazole]	Slightly

SMILES	Solubility In Water
OCCN1CCN(CCCN2c3ccccc3Sc3ccc(C(F)(F)F)cc32)CC1 [Fluphenazine]	Insoluble
CC(C(=O)O)c1ccc(-c2ccccc2)c(F)c1 (centres unmarked) [Flurbiprofen]	Slightly
COCCCC/C(=N\OCCN)c1ccc(C(F)(F)F)cc1 [Fluvoxamine]	Sparingly
CC(C)Cc1ccc(C(C)C(=O)O)cc1 (centres unmarked) [Ibuprofen]	Insoluble
CC1=C(/C=C/C(C)=C/C=C/C(C)=C\C(=O)O)C(C)(C)CCC1 [Isotretinoin]	Insoluble
COC(=O)C1=C(C)NC(C)=C(C(=O)OC(C)C)C1c1cccc2nonc12 (centres unmarked) [Isradipine]	Insoluble
CCC(C)n1ncn(-c2ccc(N3CCN(c4ccc(OCC5COC(Cn6cncn6)(c6ccc(Cl)cc6Cl)O5)cc4)CC3)cc2)c1=O (centres unmarked) [Itraconzole]	Insoluble
CC(=O)N1CCN(c2ccc(OCC3COC(Cn4ccnc4)(c4ccc(Cl)cc4Cl)O3)cc2)CC1 (centres unmarked) [Ketoconazole]	Insoluble
Nc1nnc(-c2cccc(Cl)c2Cl)c(N)n1 [Lamotrigine]	Slightly
Cc1c(OCC(F)(F)F)ccnc1C[S+]([O-])c1nc2ccccc2[nH]1 (centres unmarked) [Lansoprazole]	Insoluble
CC[C@H](C)C(=O)O[C@H]1C[C@@H](C)C=C2C=C[C@H](C)[C@H](CC[C@@H]3C[C@@H](O)CC(=O)O3)[C@H]21 [Lovastatin]	Insoluble
Cc1cccc(Nc2ccccc2C(=O)O)c1C [Mefenamic acid]	Slightly
Cc1ncc2n1-c1ccc(Cl)cc1C(c1ccccc1F)=NC2 [Midazolam]	Insoluble
C[C@@H]1C[C@H]2[C@@H]3CCC4=CC(=O)C=C[C@]4(C)[C@@]3(Cl)[C@@H](O)C[C@]2(C)[C@@]1(O)C(=O)CCl [Mometasone]	Insoluble
COc1ccc2cc(CCC(C)=O)ccc2c1 [Nabumetone]	Insoluble
CO[C@]12C[C@@H](COC(=O)c3cncc(Br)c3)CN(C)[C@@H]1Cc1cn(C)c3cccc2c13 [Nicergoline]	Insoluble
COc1ccc2[nH]c([S+]([O-])Cc3ncc(C)c(OC)c3C)nc2c1 (centres unmarked) [Omeprazole]	Slightly
CC(=O)O[C@H]1C(=O)[C@@]2(C)[C@H]([C@H](OC(=O)c3ccccc3)[C@]3(O)C[C@H](OC(=O)[C@H](O)[C@@H](NC(=O)c4ccccc4)c4ccccc4)C(C)=C1C3(C)C)[C@]1(OC(C)=O)CO[C@@H]1C[C@@H]2O [Paclitaxel]	Insoluble
O=C1NC(=O)C(c2ccccc2)(c2ccccc2)N1 [Phenytoin]	Insoluble
CN1C(C(=O)Nc2ccccn2)=C(O)c2ccccc2S1(=O)=O [Piroxicam]	Sparingly
CCOC(=O)[C@H](CCc1ccccc1)N[C@@H](C)C(=O)N1[C@H](C(=O)O)C[C@@H]2CCC[C@@H]21 [Ramipril]	Insoluble
Cc1nc2n(c(=O)c1CCN1CCC(c3noc4cc(F)ccc34)CC1)CCCC2 [Risperidone]	Insoluble
CC(=O)S[C@@H]1CC2=CC(=O)CC[C@]2(C)[C@H]2CC[C@@]3(C)[C@@H](CC[C@@]34CCC(=O)O4)[C@H]12 [Spironolactone]	Insoluble
CN(C/C=C/C#CC(C)(C)C)Cc1cccc2ccccc12 [Terbinafine]	Slightly
CC(C)(C)c1ccc(C(O)CCCN2CCC(C(O)(c3ccccc3)c3ccccc3)CC2)cc1 (centres unmarked) [Terfenadine]	Slightly
C[C@]12CC[C@H]3[C@@H](CCC4=CC(=O)CC[C@@]43C)[C@@H]1CC[C@@H]2O [Testosterone]	Insoluble
Cc1ccc(-c2nc3ccc(C)cn3c2CC(=O)N(C)C)cc1 [Zolpidem]	Sparingly
